Measured values published in article PMC13223490, “New Indazole Derivatives as Potential Scaffolds for the Development of Anticancer, Antiviral, and Anti-tuberculosis Chemotherapeutic Compounds” (Current Medicinal Chemistry, 2025).
≈ marks a conversion by molar mass, not a printed value. Where “and” joins values, the source holds several entries; their conditions need not be identical. Equal values may be shown once. Entries after “also recorded” stand apart in the source; their conditions may differ. Where a name gives a salt, the structure may show the parent alone. Read-outs that look alike come from different tables or passages of the source.

Assays:
[1] = tested on: influenza virus A/California/7/2009 (H1N1)pdm09; test: microbe, parasite or virus in culture; assay type: cell-based, human influenza virus A; conditions: for IC50: H1N1, MDCK; for SI (selectivity index): ratio of CD50 (CC50) to IC50, MDCK
[2] = Cytotoxic effect in MDCK cell culture (MTS); assay type: cell-based; conditions: dog
Experimental: Multiple dilutions of solutions of all compounds were prepared in 24-well plates by titration into 8 wells, starting from a dilution of 1:10 to 1:1280. The resulting serial dilutions were transferred to the wells of the test plates with cells. Each point was tested in 4 parallel wells. The working medium was added to the wells of the cell control. […] Then, the culture medium was removed from the plates, and 100 μL of the medium and 20 μL of the MTS solution were added to the cell culture monolayer in each well. After incubation for 3 hours at 37°C, the results were recorded on a BIO-RAD automatic reader at a wavelength of 490 nm. Reference filter - 630 nm.
To obtain statistically reliable results, the experiments were performed 2-3 times. The values of CC50 and IC50 were calculated using generally accepted methods for biological research, as implemented in the Microsoft Excel 5.0 and GraphPad Prism 6.01 software packages. The working model for CC50 analysis was a 4-parameter logistic curve equation (menu items “Nonlinear regression” - “Sigmoidal dose-response (variable slope)”). For IC50 analysis, a 4-parameter logistic curve equation was adopted (menu items “Nonlinear regression” - “log (inhibitor) vs. response (variable slope)”). Based on the obtained data, the selectivity index (SI) was calculated using the equation: SI = CC50/ IC50.

[3] = tested on: SARS-CoV-2; test: microbe, parasite or virus in culture; assay type: cell-based; conditions: for IC50: Severe acute respiratory syndrome coronavirus 2, Vero C1008, Vero E6
[4] = tested on: HL60 leukemia cells; test: Cytotoxicity on tumor cell cultures (resazurin, 48 h); assay type: cell-based; conditions: Homo sapiens, HL-60; HL60, 48 h
Experimental: (§1) The total well volume was 150 μl.

[5] = tested on: K562 leukemia cells; test: as above; assay type: cell-based; conditions: Homo sapiens, K562, 48 h
Experimental: as §1

[6] = tested on: SH-SY5Y neuroblastoma cells; test: as above; assay type: cell-based; conditions: Homo sapiens
Experimental: as §1

[7] = tested on: M. tuberculosis H37Rv; test: Bacteriostatic activity, proportion method, BACTEC MGIT 960, Middlebrook 7H9; assay type: cell-based, Mycobacterium tuberculosis
[8] = tested on: GBM5522 low-passage primary glioblastoma multiforme cells; test: Cytotoxicity on tumor cell cultures (resazurin, 48 h); conditions: 48 h
Experimental: The low-passage primary glioblastoma multiforme cell culture GBM5522 was previously described [37]. Cells were cultured in DMEM (Servicebio) containing 10% fetal bovine serum (FBS) at 37°C in an atmosphere of 5% CO2. The cells were plated in 96-well plates at a density of 1x10^4 cells/well. The test substances were then added in concentrations ranging from 0.8 to 100 μM. DMSO at a concentration of 1% was used as a control, corresponding to the percentage of DMSO when the highest concentration of the drug was added. The total well volume was 150 μl. The cells were incubated for 48 hours at 37°C in a 5% CO2 atmosphere. Resazurin was added in a concentration of 10 μl of a 0.5 mg/mL solution in phosphate-buffered saline. The incubation was carried out under the same conditions for 4 hours, and then the fluorescence level was measured at an excitation wavelength of 560 nm and an emission wavelength of 590 nm using a CLARIOstar multimodal microplate reader (BMG Labtech, Germany). The data obtained for each concentration were normalized to the control, and the IC50 was calculated using the nonlinear regression method. The minimum number of repetitions for each concentration was three. The GraphPad Prism software v.9.5.1 (GraphPad Software, San Diego, USA) was used to calculate the IC50 and plot the percentage of living cells versus the concentration of the drug.

[9] = tested on: SH-SY5Y, K-562, HL-60, GBM5522 cells; test: Cytotoxicity screening, summary over the cancer cell panel; assay type: cell-based
Experimental: as §1
Cytotoxicity screening of the synthesized indazole derivatives was performed on the cell line of neuroblastoma SH-SY5Y, lymphoblastic cells K-562, promyeloblastic cells HL-60, low-passage variant of highly differentiated multiform glioblastoma GBM5522 (Table 2).

[10] = tested on: continuous leukemia cell lines; set-up: method as in PMID 28587395, PMID 11531262; conditions: read-out: half-maximal effective concentrations; cited from earlier work
[11] = tested on: mouse; conditions: mouse model studies; cited from earlier work
[12] = tested on: M. tuberculosis; set-up: method as in PMID 37111241; conditions: cited from earlier work
[13] = tested on: M. tuberculosis; conditions: cited from earlier work

c1cncc(-c2ccc3[nH]ncc3c2)c1 [Compound 10, 5-(pyridin-3-yl)-1H-indazole]
Δlgmax [1]: 1.5 | IC50 [1]: 25 µM | maximum reduction of the infectious titer ([1]; MDCK cell culture): 1.5 logTCID50 | SI (selectivity index) [1]: 24,4 | CC50 at 66 h [2]: 610 µM | Δlgmax [3]: 0.75 | IC50 [3]: > 25 µM | IC50 [4]: > 100 µM | IC50 [5]: 5.5 ± 1.5 µM | IC50 [6]: 14.3 ± 5 µM | effect on growth of M. tuberculosis H37Rv culture, in words ([7]; up to the maximum tested concentration): did not affect the growth; also recorded: completely devoid of the ability to suppress the growth of mycobacteria | IC50 [8]: 95.4 ± 5.2 µM

c1ncc(-c2ccc3cn[nH]c3c2)cn1 [Compound 11, 6-(pyrimidin-5-yl)-1H-indazole]
Δlgmax [1]: 0.5 | IC50 [1]: > 200 µM | SI (selectivity index) [1]: <5 | CC50 at 66 h [2]: 1120 µM | Δlgmax [3]: 0 | IC50 [3]: > 200 µM | IC50 [4]: > 100 µM | IC50 [5]: > 100 µM | IC50 [6]: > 100 µM | cytotoxicity in words [9]: inactive | MIC50 ([7]; Mycobacterium tuberculosis, H37RV, 50% inhibition of mycobacterial growth, read-out: MIC 50): 60 µg/mL and 306 µM | IC50 [8]: > 100 µM

CCOC(=O)C1=C[C@@H](OC(CC)CC)[C@H](NC(C)=O)[C@@H](N)C1 [Oseltamivir, (3R,4R,5S)-4-acetamido-5-amino-3-(1-ethylpropo-xy)-1-cyclohexene-1-carboxylic acid ethyl ester phosphate salt, reference compound]
Δlgmax [1]: 6.0 | IC50 [1]: 0.61 µM | CC50 at 66 h [2]: 820 µM

COc1cc([C@@H]2c3cc4c(cc3[C@@H](O[C@@H]3O[C@@H]5CO[C@@H](C)O[C@H]5[C@H](O)[C@H]3O)[C@H]3COC(=O)[C@H]23)OCO4)cc(OC)c1O [etoposide]
EC50 [10]: 10 to 100 µM | nonlethal doses [11]: ~ 50 mg/kg

NNC(=O)c1ccncc1 [isoniazid]
MIC [12]: 0.36 µM (≈ 0.0494 µg/mL) | critical concentration ([13]; control drugs): 1 μg/mL and 0.73 µM

NC(=O)c1cnccn1 [pyrazinamide]
critical concentration [13]: 100 μg/mL and 812 µM

CO[C@H]1/C=C/O[C@@]2(C)Oc3c(C)c(O)c4c(O)c(c(/C=N/N5CCN(C)CC5)c(O)c4c3C2=O)NC(=O)/C(C)=C\C=C\[C@H](C)[C@H](O)[C@@H](C)[C@@H](O)[C@@H](C)[C@H](OC(C)=O)[C@@H]1C [rifampicin]
critical concentration ([13]; control drugs): 0.5 μg/mL and 0.61 µM
